From patent US12280090B2, “Antimicrobial peptides” (priority 2018, dated 2025)
≈ marks a conversion by molar mass, not a printed value. Like-named read-outs stand apart in the source and are kept apart here. Ends that are not written are not given here. Peptide text beside a SMILES is read from it.

Key:
Type in all cases: cell-based
Salmonella Enteritidis = test system: Salmonella Enteritidis
Excerpt: (§1) Putative antimicrobial peptides were synthesized by GeneScript. A-list antimicrobial peptides re-synthesized by GeneScript. P2_CCH, P5_CCH, and P5_CCH_A19K were each synthesized under two conditions: standard synthesis using TFA, and the other with TFA-removal using acetate as a counter-ion. A MIC method, adapted for use with cationic antimicrobial peptides, was used to evaluate MIC antimicrobial activity (Hancock 1999).
(§2) The following data are presented to show the activity (MIC/MBC in μg/mL) of certain antimicrobial peptides described herein relative to a modified/synthetic version having a specified substitution. While data presented in tables above may be presented again, or may be represented in data provided in the tables below, such duplication is believed to assist the reader in readily noting comparisons. Different Run Numbers noted in the following tables denotes experiments conducted on different days, with each run reflecting multiple n values.

[1] = test system: Staphylococcus aureus—ATCC 29213 “wild type”
Procedure: (§3) Independent experiments were conducted with different strains of Staphylococcus aureus—ATCC 29213 “wild type”; and Staphylococcus aureus—Methicillin resistant Staphylococcus aureus.
(§4) The ATCC (American Type Culture Collection) strains received from Cedarlane. Multi drug resistant (MDR) strains, as clinical isolates, were received from the laboratory of Dr. Linda Hoang.
as §1, §2

[2] = test system: Salmonella Heidelberg (MDR)
Excerpt: as §4, §1, §2

[3] = test system: Escherichia coli—Extended spectrum beta-lactamase
Procedure: (§5) Independent experiments were conducted with four strains of E. coli, including ATCC E. coli (Escherichia coli—ATCC 25922 “wild type”); ESBL E. coli (Escherichia coli—Extended spectrum beta-lactamase); CPO E. coli (KPC) (Escherichia coli—Carbapenemase-producing organism; Klebsiella pneumoniae carbapenemase); and CPO E. coli (NDM) (Escherichia coli—Carbapenemase-producing organism; New-Dehli Metallobetalactamase).
as §4, §1, §2

[4] = test system: Escherichia coli—Carbapenemase-producing organism; New-Dehli Metallobetalactamase
Procedure: as §5, §4, §1, §2

[5] = test system: Escherichia coli—Carbapenemase-producing organism; Klebsiella pneumoniae carbapenemase
Procedure: as §5, §4, §1, §2

[6] = test system: Escherichia coli—ATCC 25922 “wild type”
Procedure: as §5, §4, §1, §2

[7] = test system: Methicillin resistant Staphylococcus aureus; settings: Methicillin resistant
Procedure: as §3, §4, §1, §2

[8] = test system: Mycobacterium smegmatis (MC^2155); settings: Mycobacterium (MC^2155)
Procedure, shortened: (§6)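 MIC and MBC were run by broth microdilution adapted from Hancock cationic-AMP and CLSI methods, in Mueller Hinton broth (+5% lysed horse blood for S. pyogenes) at about 5×10^5 CFU/mL. Peptides came from two-fold 10× stocks (2560–5 μg/mL) and were incubated 16-24 h at 37 °C. For MBC, the MIC well and two more-concentrated wells were plated on MHA for 24 h at 37 °C.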

[9] = test system: Escherichia coli: ATCC 9723H; settings: ATCC 9723
Procedure, shortened: as §6

[10] = test system: Staphylococcus aureus: ATCC 6538P; settings: ATCC 6538
Procedure, shortened: as §6

[11] = test system: Pseudomonas aeruginosa: ATCC 10148; settings: ATCC 10148
Procedure, shortened: as §6

[12] = test system: Streptococcus pyogenes: unknown strain, hospital isolate; settings: unknown strain, hospital isolate
Procedure, shortened: as §6

[13] = Salmonella Heidelberg (MDR), Run No. 2
[14] = Salmonella Heidelberg (MDR), Run No. 3

Q: How did the “Minimum Inhibitory Concentration (MIC)” value (Salmonella Enteritidis; S. enterica spp. Enteritidis, Gram negative) turn out when `CC[C@H](C)[C@H](NC(=O)[C@H](CCCCN)NC(=O)[C@H](CCC(=O)O)NC(=O)[C@H](CCCCN)NC(=O)[C@H](CO)NC(=O)[C@H](CCCCN)NC(=O)[C@H](CCCNC(=N)N)NC(=O)[C@H](Cc1ccccc1)NC(=O)[C@H](Cc1ccccc1)NC(=O)[C@H](CC(=O)O)NC(=O)CNC(=O)[C@H](CC(C)C)NC(=O)[C@@H](N)CC(C)C)C(=O)NCC(=O)N[C@@H](CCCCN)C(=O)N[C@@H](CCC(=O)O)C(=O)N[C@@H](Cc1ccccc1)C(=O)N[C@@H](CCCCN)C(=O)N[C@@H](CCCNC(=N)N)C(=O)N[C@H](C(=O)N[C@H](C(=O)N[C@@H](CCC(N)=O)C(=O)N[C@@H](CCCNC(=N)N)C(=O)N[C@H](C(=O)N[C@@H](CCCCN)C(=O)N[C@@H](CC(=O)O)C(=O)N[C@@H](Cc1ccccc1)C(=O)N[C@@H](CC(C)C)C(=O)N[C@@H](CCCNC(=N)N)C(=O)N[C@@H](CC(N)=O)C(=O)N[C@@H](CC(C)C)C(=O)N[C@H](C(=O)N1CCC[C@H]1C(=O)N[C@@H](CCCNC(=N)N)C(=O)N[C@H](C(=O)N[C@@H](CCC(=O)O)C(=O)N[C@@H](CO)C(=O)O)[C@@H](C)O)C(C)C)[C@@H](C)CC)C(C)C)[C@@H](C)CC` [LL-37, reference compound] was run?
A: 64+ ug/mL

Q: What about the “Minimum Inhibitory Concentration (MIC)” value ([1]; S. aureus ATCC 29213, Gram positive) of the same molecule?
A: 128+ ug/mL

Q: How did the “Minimum Inhibitory Concentration (MIC)” value (Salmonella Enteritidis) turn out when `CC[C@H](C)[C@H](NC(=O)[C@H](CCCCN)NC(=O)[C@H](CCCCN)NC(=O)CNC(=O)[C@@H](NC(=O)[C@@H](NC(=O)[C@H](CCCCN)NC(=O)[C@@H](NC(=O)[C@@H](NC(=O)[C@H](CCC(=O)O)NC(=O)[C@H](Cc1c[nH]c2ccccc12)NC(=O)[C@H](CC(C)C)NC(=O)CN)[C@@H](C)O)[C@@H](C)CC)[C@@H](C)O)[C@@H](C)O)C(=O)N[C@@H](C)C(=O)N[C@@H](CC(C)C)C(=O)N[C@@H](CC(N)=O)C(=O)N[C@@H](CC(C)C)C(=O)N[C@@H](CC(C)C)C(=O)N[C@@H](CC(=O)O)C(=O)N[C@@H](CCCCN)C(=O)N[C@H](C(=O)N[C@@H](CCCCN)C(=O)N[C@@H](CS)C(=O)N[C@@H](CCCCN)C(=O)N[C@H](C(=O)N[C@@H](C)C(=O)NCC(=O)NCC(=O)N[C@@H](CS)C(=O)N1CCC[C@H]1C(=O)N1CCC[C@H]1C(=O)O)[C@@H](C)CC)[C@@H](C)CC` [Peptide P6_CCH_S12K] (H-GLWETIKTTGKKIALNLLDKIKCKIAGGCPP-OH; N-terminus and C-terminus assumed) was run?
A: 16 to 32 µg/mL

Q: What about the “Minimum Inhibitory Concentration (MIC)” value [2] of the same molecule?
A: 16 to 32 µg/mL

Q: What about the MBC [3] of the same molecule?
A: 4 µg/mL (≈ 1.21 µM)

Q: And the MIC [3]?
A: 4 µg/mL (≈ 1.21 µM)

Q: And the “Minimum Inhibitory Concentration (MIC)” value [3]?
A: 4 µg/mL

Q: What about the “Minimum Inhibitory Concentration (MIC)” value [4] of the same molecule?
A: 4 to 8 µg/mL

Q: What about the “Minimum Inhibitory Concentration (MIC)” value [5] of the same molecule?
A: 4 µg/mL

Q: What about the MBC [6] of the same molecule?
A: 4 µg/mL (≈ 1.21 µM)

Q: What about the MIC [6] of the same molecule?
A: 4 µg/mL (≈ 1.21 µM)

Q: What about the “Minimum Inhibitory Concentration (MIC)” value [6] of the same molecule?
A: 4 µg/mL

Q: And the “Minimum Inhibitory Concentration (MIC)” value ([1]; ATCC 29213)?
A: 64 to 128 µg/mL

Q: And the “Minimum Inhibitory Concentration (MIC)” value [7]?
A: 64 to 128 µg/mL

Q: What does the source list for `CC[C@H](C)[C@H](NC(=O)[C@H](Cc1ccccc1)NC(=O)[C@@H]1CCCN1C(=O)[C@H](CC(C)C)NC(=O)[C@@H](N)Cc1ccccc1)C(=O)N[C@@H](C)C(=O)N[C@@H](CCCNC(=N)N)C(=O)N[C@@H](CC(C)C)C(=O)N[C@@H](C)C(=O)N[C@@H](C)C(=O)N[C@@H](CCCCN)C(=O)N[C@H](C(=O)N[C@@H](Cc1ccccc1)C(=O)N1CCC[C@H]1C(=O)N[C@@H](CO)C(=O)N[C@H](C(=O)N[C@H](C(=O)N[C@@H](CS)C(=O)N[C@@H](CO)C(=O)N[C@H](C(=O)N[C@H](C(=O)N[C@@H](CCCCN)C(=O)N[C@@H](CCCCN)C(=O)N[C@@H](CS)C(=O)O)[C@@H](C)O)C(C)C)[C@@H](C)CC)[C@@H](C)CC)C(C)C` [Ran-4] (H-FLPFIARLAAKVFPSIICSVTKKC-OH; N-terminus and C-terminus assumed)?
A: Minimum Inhibitory Concentration (MIC) (Salmonella Enteritidis): 16 to 32 µg/mL; Minimum Inhibitory Concentration (MIC) [2]: 16 to 32 µg/mL; Minimum Inhibitory Concentration (MIC) [3]: 4 to 8 µg/mL; Minimum Inhibitory Concentration (MIC) [4]: 4 to 8 µg/mL; Minimum Inhibitory Concentration (MIC) [5]: 4 to 8 µg/mL; Minimum Inhibitory Concentration (MIC) [6]: 2 to 4 µg/mL; Minimum Inhibitory Concentration (MIC) ([1]; ATCC 29213): 64 to 128 µg/mL; Minimum Inhibitory Concentration (MIC) [7]: 64 to 128 µg/mL

Q: Which results are given for “ALVAKIQKFPVFNTLKLCKLELEII [Peptide P11_CCH]”?
A: MIC (Salmonella Enteritidis): 32 µg/mL; MIC [2]: 128 µg/mL; MBC [8]: >256 µg/mL; MIC [8]: >256 µg/mL; MBC [9]: >256 µg/mL; MIC [9]: >256 µg/mL; MBC [10]: >256 µg/mL; MIC [10]: >256 µg/mL; MBC [11]: >256 µg/mL; MIC [11]: >256 µg/mL; MBC [12]: >256 µg/mL; MIC [12]: >256 µg/mL; MIC ([1]; ATCC 29213): 64 µg/mL

Q: Which results are given for “ALVAKIQKFPVFNTLKLCKLKLRII [P11_CCH_E21K_E23R]”?
A: MIC (Salmonella Enteritidis): 64 µg/mL; MIC [2]: 128 µg/mL; MBC [4]: 128 µg/mL; MBC [6]: 32 µg/mL; MIC ([1]; ATCC 29213): 128 µg/mL

Q: “ATAWMIPPRGMQPIIPIRIRPLCGKQ [P7_CCH_P9R_R5M]” was tested. Which MBC [3] did it give?
A: 128 µg/mL

Q: What about the MIC [3] of the same molecule?
A: 128 µg/mL

Q: What about the MIC [4] of the same molecule?
A: 256 µg/mL

Q: And the MBC [5]?
A: 256 µg/mL

Q: And the MIC [5]?
A: 256 µg/mL

Q: What about the MIC [6] of the same molecule?
A: 256 µg/mL

Q: And the MIC ([1]; ATCC 29213)?
A: 128 µg/mL

Q: What does the source list for “FFPRVLPLANKFLPTIYCALPKSVGN [Peptide P2_CCH]”?
A: MBC (Salmonella Enteritidis): 64 µg/mL; MIC (Salmonella Enteritidis): 64 µg/mL; Minimum Inhibitory Concentration (MIC) (Salmonella Enteritidis): 64 µg/mL; MBC [2]: 128 µg/mL; MIC [2]: 128 µg/mL; Minimum Inhibitory Concentration (MIC) [2]: 128 µg/mL; MIC [8]: 16 µg/mL; MBC [10]: >256 µg/mL; MIC [10]: >256 µg/mL; MBC [11]: >256 µg/mL; MIC [11]: >256 µg/mL; MBC [12]: >256 µg/mL; MIC [12]: >256 µg/mL; Minimum Inhibitory Concentration (MIC) [3]: 16 µg/mL; Minimum Inhibitory Concentration (MIC) [4]: 16 µg/mL; Minimum Inhibitory Concentration (MIC) [5]: 16 to 32 µg/mL; Minimum Inhibitory Concentration (MIC) [6]: 16 µg/mL

Q: What does the source list for IQRLPVIKMLKLWKLELKII [P13_CCH_N8K_E18K]?
A: MIC (Salmonella Enteritidis): 16 µg/mL; MIC [2]: 32 µg/mL; MIC [2, 13]: ~16? μg/mL; MIC [2, 14]: ~16? μg/mL; MIC ([4]; CPO E. coli (NDM), Run No. 4): ~64? μg/mL; MIC ([4]; CPO E. coli (NDM), Run No. 5): ~64? μg/mL; MIC [5]: 64 µg/mL; MIC [6]: 32 µg/mL; MIC ([1]; ATCC 29213): 256 µg/mL

Q: Which MIC (Salmonella Enteritidis) does the source give for IQRLPVINMLKLWKLELEII [Peptide P13_CCH] here?
A: 16 µg/mL

Q: And the MIC [2]?
A: 32 µg/mL

Q: And the MIC [2, 13]?
A: ~32? μg/mL

Q: What about the MIC [2, 14] of the same molecule?
A: ~32? μg/mL

Q: And the MBC [8]?
A: >256 µg/mL

Q: What about the MIC [8] of the same molecule?
A: >256 µg/mL

Q: What about the MBC [9] of the same molecule?
A: >256 µg/mL

Q: What about the MIC [9] of the same molecule?
A: >256 µg/mL

Q: What about the MBC [10] of the same molecule?
A: >256 µg/mL

Q: What about the MIC [10] of the same molecule?
A: >256 µg/mL

Q: What about the MBC [11] of the same molecule?
A: >256 µg/mL

Q: What about the MIC [11] of the same molecule?
A: >256 µg/mL

Q: What about the MBC [12] of the same molecule?
A: >256 µg/mL

Q: What about the MIC [12] of the same molecule?
A: >256 µg/mL

Q: And the MIC [4]?
A: 256 µg/mL

Q: And the MIC ([1]; ATCC 29213)?
A: 128 µg/mL
